In patent publication US20080319175A1, “Transthyretin Stabilization” (The Scripps Research Institute, priority 2004, published 2008):

Experiments:
[1] = molecular target: T1, WT-TTR (Homo sapiens, UniProt P02766); test: time course analysis of WT-TTR fibril formation inhibition (turbidity at 500 nm); assay type: biochemical; conditions: WT-TTR 3.6 μM; for TTR amyloidogenesis mediated by partial acidification relative to control: inhibitor 7.2 and 3.6 μM, pH 4.4
T1 construct: made in house
Text: (§1) The ability of these inhibitors to impose kinetic stability on tetrameric TTR is best evaluated by assessing the rate of TTR tetramer dissociation (Hammarstrom, P.; et al. Science 2003, 299, 713-716; Hammarstrom, P.; et al. Proc. Natl. Acad. Sci. USA 2002, 99, 16427-16432). Under acidic conditions tetramer dissociation leads to amyloidogenesis, whereas in the presence of chaotropes (6M urea), tetramer dissociation leads to monomer unfolding. The influence of inhibitors 25, 47 and 64, representing the three structural classes of dibenzofuran-based inhibitors, on the rates of tetramer dissociation under acid- and urea-mediated denaturing conditions was probed. […] The rate of TTR tetramer dissociation in 6M urea is easily monitored by linking the slow quaternary structural changes to rapid tertiary structural changes that are easily monitored by spectroscopic methods (Hammarstrom, P.; et al. Proc. Natl. Acad. Sci. USA 2002, 99, 16427-16432).
Time course analysis of WT-TTR fibril formation inhibition by compounds 25, 47, and 64. Compounds 25, 47, and 64 were dissolved in DMSO to provide 7.2 mM primary stock solutions (10× stocks), from which 5- and 10-fold DMSO dilutions yielded 1.44 mM (2×) and 0.72 mM (1×) secondary stock solutions, respectively. 495 μL of 0.4 mg/mL (7.2 μM) WT-TTR solution (10 mM sodium phosphate, 100 mM KCl, and 1 mM EDTA, pH 7.2), and 5 μL of either the 1.44 or 0.72 mM inhibitor secondary stock solutions were added to disposable UV cuvettes, vortexed briefly, then incubated for 30 min at 25° C. The pH was then adjusted to 4.4 with addition of 500 μL of acidic buffer (100 mM acetate, 100 mM KCl, 1 mM EDTA, pH 4.2), and the final 1 mL solutions were vortexed again and incubated in the dark at 37° C. without agitation. At 0, 4, 8, 12, 25, 49, 74, 100, 122, 145, and 169 h time points after acidification, the solutions were vortexed and the turbidity at 500 nm was measured. Control samples containing 5 μL of pure DMSO were prepared and analyzed as above for comparison. Small molecule and TTR control samples were prepared in groups of 10 to prevent disturbance of the cuvettes during incubation. Samples were discarded after their turbidities were measured.
FIG. 10 is a plot of the timecourse analysis of WT-TTR (3.6 μM) fibril formation mediated by partial acid denaturation in the absence (▴) and presence of 7.2 μM (⋄) and 3.6 μM (∘) inhibitors 25, 47, and 64, as measured by turbidity at 500 nm (see color scheme within Figure to differentiate inhibitors). It is hard to discern which compound is most efficacious in the black and white plot.

[2] = molecular target: T1, WT-TTR; test: time course analysis of WT-TTR tetramer dissociation in urea (far-UV CD); assay type: biochemical; conditions: for rate of TTR tetramer dissociation monitored by far-UV CD: 6M urea, TTR 3.6 μM, inhibitor 7.2 and 3.6 μM; for rank in tetramer dissociation time course at the end of the plot: after 169 hours, 6.0 M urea, WT-TTR 3.6 μM
Text: as §1
Time course analysis of WT-TTR tetramer dissociation inhibition by compounds 25, 47, and 64 evaluated by linked-monomer unfolding in urea. Compounds 25, 47, and 64 were dissolved in DMSO to provide 10 mM primary stock solutions, from which 10-fold EtOH dilutions yielded 1 mM secondary stock solutions. 200 μL of 1.0 mg/mL (18 μM) WT-TTR solution (50 mM sodium phosphate, 100 mM KCl, and 1 mM EDTA, pH 7.2), and either 7.2 or 3.6 μL (2× and 1×, respectively) of 1 mM inhibitor secondary stock solutions were added to 2 mL eppendorf tubes, vortexed briefly, and incubated for 15 min at 25° C. 100 μL of the TTR•inhibitor solutions were added to 900 μL of urea buffer (6.67 M urea, 50 mM sodium phosphate, 100 mM KCl, 1 mM EDTA, pH 7.2), and the final 1 mL solutions were vortexed again and incubated in the dark at 25° C. without agitation. At 0, 4, 11, 24, 49, 73, 97, 122, 146, and 170 h time points after mixing with urea, the circular dichroism spectra were measured between […], with scanning every 0.5 nm and averaging for 5 s. After measurements were taken, samples were returned to their respective eppendorf tubes and incubation was continued. Control samples containing 7.2 μL of 10% DMSO in EtOH were prepared and analyzed as above for comparison. The CD amplitude values were averaged between 215 and 218 nm to determine the extent of β-sheet loss throughout the experiment. TTR tetramer dissociation is linked to the rapid (˜500,000× faster) monomer denaturation as measured through this β-sheet loss (Hammarstrom, P.; et al. Proc. Natl. Acad. Sci. USA 2002, 99, 16427-16432).
FIG. 11 is a plot of the timecourse analysis of WT-TTR (3.6 μM) tetramer dissociation (6.0 M urea) in the absence (▴) and presence of 7.2 μM (⋄) and 3.6 μM (∘) concentrations of inhibitors 25, 47, and 64 (see color scheme within Figure to differentiate inhibitors). Slow tetramer dissociation is not detectable by far-UV CD spectroscopy, but this process is linked to rapid (˜500,000× faster) monomer denaturation as monitored by loss of β-sheet content easily followed by circular dichroism spectroscopy. It is hard to discern which compound is most efficacious in the black and white plot.

[3] = precipitation of small molecule under acid-mediated amyloidogenic conditions in the absence of TTR; assay type: physicochemical; conditions: 3.6 μM, pH 4.4, 37° C., 72 h
Method: TTR amyloid inhibition efficacy was probed using a stagnant fibril formation assay described previously, wherein partial denaturation was triggered by acidification (pH 4.4, 37° C.) (Colon, W.; Kelly, J. W. Biochemistry 1992, 31, 8654-8660). Briefly, a test compound (7.2 or 3.6 μM) is incubated with TTR (3.6 μM) for 30 min in pH 7 buffer. Amyloidogenesis is then initiated by lowering to pH 4.4, where maximal fibril formation is observed with WT-TTR after 72 h (37° C.). The turbidity in the presence of a potential inhibitor (Ttest) is compared to that of a solution lacking a test compound (Tcontrol). […] From experience we know that excellent inhibitors allow <10% fibril formation at a small molecule concentration of 7.2 μM and <40% fibril formation at a concentration equal to that of WT-TTR (3.6 μM) (Hammarstrom, P.; et al. Science 2003, 299, 713-716; Klabunde, T.; et al. Nature Struct. Biol. 2000, 7, 312-321; Razavi, H.; et al. Angew Chem 2003, 42, 2758-2761; Miroy, G. J.; et al. Proc. Natl. Acad. Sci. USA 1996, 93, 15051-15056; Peterson, S. A.; et al. Proc. Natl. Acad. Sci. USA 1998, 95, 12956-12960; Baures, P. W.; et al. Bioorg. Med. Chem. 1998, 6, 1389-1401; Baures, P. W.; et al. Bioorg. Med. Chem. 1999, 7, 1339-1347; Petrassi, H. M.; et al. J. Am. Chem. Soc. 2000, 122, 2178-2192; McCammon, M. G.; et al. Structure 2002, 10, 851-863; Oza, V. B.; et al. J. Med. Chem. 2002, 45, 321-332; Sacchettini, J. C.; et al. Nature Rev. Drug Disc. 2002, 1, 267-275; Green, N. S.; et al. J. Am. Chem. Soc. 2003, 125, 13404-13414; Adamski-Werner, S. L.; et al. J. Med. Chem. 2004, 47, 355-374; Miller Sean, R.; et al. Lab. Inv. 2004, 84, 545-552). […] Therefore, when both the ligand and TTR are at equal concentrations, a population of TTR•I, TTR•I2 and unliganded TTR is observed, dictated by the dissociation constants. It is now established by other studies that inhibitor occupancy of only one of the two TTR binding sites is sufficient to stabilize the entire tetramer against amyloidogenesis (Wiseman, R. L.; et al. J. Am. Chem. Soc. 2005, in press). This is further supported by the observation herein that twenty-six of these dibenzofurans are excellent TTR amyloidogenesis inhibitors (<40% fibril formation) at a concentration equal to that of TTR (3.6 μM each, FIG. 3).

| SMILES | rank by fibrils formed at the end of the time course ([1]; after 169 hours, partial acid denaturation) | TTR amyloidogenesis mediated by partial acidification relative to control [1] | rate of TTR tetramer dissociation monitored by far-UV CD [2] | precipitation of compound in the absence of TTR [3] | rank in tetramer dissociation time course at the end of the plot [2] |
| --- | --- | --- | --- | --- | --- |
| O=C(O)c1cccc2c1oc1c(C(=O)O)ccc(Oc3cc(Cl)cc(Cl)c3)c12 [Compound 47] | shows the most fibrils formed | dramatically slowed in a dose-dependent fashion | markedly slowed in a dose-dependent fashion | no measurable precipitation |  |
| O=C(O)c1cccc2c1oc1c(C(=O)O)ccc(Nc3ccccc3C(F)(F)F)c12 [Compound 25] |  | dramatically slowed in a dose-dependent fashion | markedly slowed in a dose-dependent fashion | no measurable precipitation | most effective in dissociating tetramers |
| O=C(O)c1cccc2c1oc1c(C(=O)O)ccc(-c3cc(C(F)(F)F)cc(C(F)(F)F)c3)c12 [Compound 64] |  | dramatically slowed in a dose-dependent fashion | markedly slowed in a dose-dependent fashion |  | followed by compound 64 |
